Values of other authors as cited in patent US20110039804A1, “Composition of Risedronate and Vitamin D3” (LANDSTEINER SCIENTIFIC, S.A. de C.V., priority 2006, published 2011).
Like-named read-outs stand apart in the source and are kept apart here.

Columns and labels:
[1] = test system: patients with Paget's disease
[2] = Paget's disease, 35 mg daily for two months

For `CC(O)(P(=O)(O)O)P(=O)(O)O` [etidronate], the “Patients with normalized serum alkaline phosphatase concentration” value ([1]; Paget's disease, control group, etidronate 400 mg/day for 6 months) is listed as 11%.

In the case of `O=P(O)(O)C(O)(Cc1cccnc1)P(=O)(O)O` [risedronate, 3-pyridil-1-hydroxyethylyden-1,1-bisphosphonic acid], the “average distribution volume in a state of balance” value (humans) is listed as 6.3 L/kg, the Tmax (single oral administration, studied range 2.5 mg to 30 mg single dose) is listed as “approximately 1 hour” and the deoxypyridinoline/urinary creatinine ratio [1, 2] is listed as “Significantly reduced”. The hydroxyproline/urinary creatinine ratio [1, 2] was “Significantly reduced”, the new fractures ([1]; Paget's disease, 35 mg daily for two months, x-rays before and after 6 months) was “no new fractures” and the “Patients with normalized serum alkaline phosphatase concentration” value ([1]; Paget's disease, daily dose of 35 mg risedronate for two months) was 77%. The “dimension of lithic lesions in the axial and appendicular skeleton” value ([1]; Paget's disease, x-rays before and after 6 months of treatment) was “Reduced” and the “Patients staying on biochemical remission” value ([1]; during the 18 months following the two-month treatment) was “Fifty-three”.

In the case of `O=P([O-])(O)C(O)(Cc1cccnc1)P(=O)(O)O.[Na+]` [sodium risedronate], the systemic metabolism (in vivo) is given as “no evidence of systemic metabolism”, the “effect of food on oral bioavailability” value (tablet administered with food) is given as “reduces” and the mid oral bioavailability (tablet, oral) is given as 0.63%.
